# Data: paper PMC5218480 (PLoS ONE, 2017)
# Test system: MV-4-11 cells
# Test: Gene expression microarray analysis (Affymetrix PrimeView) and GSEA
# Assay type: cell-based, human
# Design: RFU PODN (11730768_x_at) / Fold change /veh PODN (11730768_x_at) / RFU LINC00158 (11744669_a_at) / Fold change /veh LINC00158 (11744669_a_at) / RFU DUSP10 (11751237_a_at) / Fold change /veh DUSP10 (11751237_a_at) / RFU ID3 (11757404_x_at) / Fold change /veh ID3 (11757404_x_at) / RFU PLEKHG5 (11737974_s_at) / Fold change /veh PLEKHG5 (11737974_s_at) / RFU LRRC4B (11730491_at) / Fold change /veh LRRC4B (11730491_at) / RFU GIMAP4 (11747438_a_at) / Fold change /veh GIMAP4 (11747438_a_at) / RFU KRT8 (11758183_x_at) / Fold change /veh KRT8 (11758183_x_at) / RFU CNN1 (11734310_a_at) / Fold change /veh CNN1 (11734310_a_at) / RFU VPS37D (11726825_at) / Fold change /veh VPS37D (11726825_at) / RFU C10orf10 (11716522_x_at) / Fold change /veh C10orf10 (11716522_x_at) / RFU KIR2DL2 /// KIR2DL4 /// KIR2DL5A /// KIR2DL5B /// KIR2DS1 /// KIR2DS2 /// KIR2DS3 /// KIR2DS4 /// KIR3DL3 /// KIR3DL3 /// KIR3DS1 (11738374_at) / Fold change /veh KIR2DL2 /// KIR2DL4 /// KIR2DL5A /// KIR2DL5B /// KIR2DS1 /// KIR2DS2 /// KIR2DS3 /// KIR2DS4 /// KIR3DL3 /// KIR3DL3 /// KIR3DS1 (11738374_at) / RFU C1QL1 (11718748_at) / Fold change /veh C1QL1 (11718748_at) / RFU TMPRSS4 (11747572_a_at) / Fold change /veh TMPRSS4 (11747572_a_at) / RFU HAMP (11756126_x_at) / Fold change /veh HAMP (11756126_x_at) / RFU RNFT2 (11725882_a_at) / Fold change /veh RNFT2 (11725882_a_at) / RFU NR4A2 (11747474_a_at) / Fold change /veh NR4A2 (11747474_a_at) / RFU ABCC12 (11746883_a_at) / Fold change /veh ABCC12 (11746883_a_at) / RFU TMEM136 (11760407_x_at) / Fold change /veh TMEM136 (11760407_x_at) / RFU CLDN22 /// WWC2 (11732394_at) / Fold change /veh CLDN22 /// WWC2 (11732394_at) / RFU HLA-DPB1 (11760878_x_at) / Fold change /veh HLA-DPB1 (11760878_x_at) / RFU SPINT1 (11716480_a_at) / Fold change /veh SPINT1 (11716480_a_at) / RFU GAP43 (11754022_s_at) / Fold change /veh GAP43 (11754022_s_at) / RFU A4GNT (11735810_at) / Fold change /veh A4GNT (11735810_at) / RFU PRB3 (11715151_x_at) / Fold change /veh PRB3 (11715151_x_at) / RFU TUBB4B (11761932_at) / Fold change /veh TUBB4B (11761932_at) / RFU CAPN14 (11732068_a_at) / Fold change /veh CAPN14 (11732068_a_at) / RFU TMCC2 (11721928_a_at) / Fold change /veh TMCC2 (11721928_a_at) / RFU IRGQ (11745062_a_at) / Fold change /veh IRGQ (11745062_a_at) / RFU FAM174B (11720279_a_at) / Fold change /veh FAM174B (11720279_a_at) / RFU TMPRSS4 (11748680_a_at) / Fold change /veh TMPRSS4 (11748680_a_at) / RFU FAM212B (11763350_a_at) / Fold change /veh FAM212B (11763350_a_at) / RFU PLEKHG5 (11743358_a_at) / Fold change /veh PLEKHG5 (11743358_a_at) / RFU ZSCAN30 (11745921_a_at) / Fold change /veh ZSCAN30 (11745921_a_at) / RFU CMKLR1 (11741424_a_at) / Fold change /veh CMKLR1 (11741424_a_at) / RFU LOC101060620 /// MAPK8IP1 (11723275_at) / Fold change /veh LOC101060620 /// MAPK8IP1 (11723275_at) / RFU SPTSSB (11747773_x_at) / Fold change /veh SPTSSB (11747773_x_at) / RFU PRSS12 (11739890_at) / Fold change /veh PRSS12 (11739890_at) / RFU BIN1 (11741810_x_at) / Fold change /veh BIN1 (11741810_x_at) / RFU WNT11 (11732464_a_at) / Fold change /veh WNT11 (11732464_a_at) / RFU C10orf10 (11716521_a_at) / Fold change /veh C10orf10 (11716521_a_at) / RFU C5orf56 (11738089_at) / Fold change /veh C5orf56 (11738089_at) / RFU CYB561 (11721691_x_at) / Fold change /veh CYB561 (11721691_x_at) / RFU ANKRD19P (11752326_a_at) / Fold change /veh ANKRD19P (11752326_a_at) / RFU OR2T12 /// OR2T33 /// OR2T8 (11738714_s_at) / Fold change /veh OR2T12 /// OR2T33 /// OR2T8 (11738714_s_at) / RFU VCAN (11748164_a_at) / Fold change /veh VCAN (11748164_a_at) / RFU JSRP1 (11732532_at) / Fold change /veh JSRP1 (11732532_at) / RFU KRTAP10-11 (11738290_x_at) / Fold change /veh KRTAP10-11 (11738290_x_at) / RFU MYO3A (11730013_a_at) / Fold change /veh MYO3A (11730013_a_at) / RFU EBF3 (11725865_a_at) / Fold change /veh EBF3 (11725865_a_at) / RFU CAMK2N1 (11719241_x_at) / Fold change /veh CAMK2N1 (11719241_x_at) / RFU C5orf56 (11738088_a_at) / Fold change /veh C5orf56 (11738088_a_at) / RFU OLFML3 (11715873_a_at) / Fold change /veh OLFML3 (11715873_a_at) / RFU LOC100653217 /// NTM (11731650_a_at) / Fold change /veh LOC100653217 /// NTM (11731650_a_at) / RFU MAPK11 (11762145_a_at) / Fold change /veh MAPK11 (11762145_a_at) / RFU FIZ1 (11724087_x_at) / Fold change /veh FIZ1 (11724087_x_at) / RFU OASL (11726364_x_at) / Fold change /veh OASL (11726364_x_at) / RFU SOX15 (11748057_x_at) / Fold change /veh SOX15 (11748057_x_at) / RFU CD79A (11719716_a_at) / Fold change /veh CD79A (11719716_a_at) / RFU HIST1H1D (11736915_at) / Fold change /veh HIST1H1D (11736915_at) / RFU CASKIN2 (11723855_a_at) / Fold change /veh CASKIN2 (11723855_a_at) / RFU LOC730098 (11760151_x_at) / Fold change /veh LOC730098 (11760151_x_at) / RFU OR4N2 (11742367_at) / Fold change /veh OR4N2 (11742367_at) / RFU PRRT2 (11749266_a_at) / Fold change /veh PRRT2 (11749266_a_at) / RFU SNX32 (11753110_a_at) / Fold change /veh SNX32 (11753110_a_at) / RFU CDHR5 (11726645_a_at) / Fold change /veh CDHR5 (11726645_a_at) / RFU RCAN1 (11760418_a_at) / Fold change /veh RCAN1 (11760418_a_at) / RFU FAM167A (11723789_a_at) / Fold change /veh FAM167A (11723789_a_at) / RFU FAM26E (11764081_at) / Fold change /veh FAM26E (11764081_at) / RFU ISYNA1 (11749810_s_at) / Fold change /veh ISYNA1 (11749810_s_at) / RFU ACY1 (11761880_at) / Fold change /veh ACY1 (11761880_at) / RFU 11764098_at / Fold change /veh 11764098_at / RFU SAMD14 (11745864_x_at) / Fold change /veh SAMD14 (11745864_x_at) / RFU NPB (11741838_a_at) / Fold change /veh NPB (11741838_a_at) / RFU TMPRSS6 (11731388_a_at) / Fold change /veh TMPRSS6 (11731388_a_at) / RFU KRTAP10-2 (11738614_at) / Fold change /veh KRTAP10-2 (11738614_at) / RFU ARHGAP8 /// PRR5-ARHGAP8 (11727945_x_at) / Fold change /veh ARHGAP8 /// PRR5-ARHGAP8 (11727945_x_at) / RFU KRTAP5-7 /// NADSYN1 (11734609_at) / Fold change /veh KRTAP5-7 /// NADSYN1 (11734609_at) / RFU RASL12 (11751679_a_at) / Fold change /veh RASL12 (11751679_a_at) / RFU CDKN2B (11736163_a_at) / Fold change /veh CDKN2B (11736163_a_at) / RFU PRF1 (11729649_at) / Fold change /veh PRF1 (11729649_at) / RFU, ZNF638 /// ZNF638-IT1 / Fold change vs veh, ZNF638 /// ZNF638-IT1 / RFU, PANK3 / Fold change vs veh, PANK3 / RFU, SH3YL1 / Fold change vs veh, SH3YL1 / RFU, ZEB2 / Fold change vs veh, ZEB2 / RFU, NRIP1 / Fold change vs veh, NRIP1 / RFU, PTTG1IP / Fold change vs veh, PTTG1IP / RFU, CAPN2 / Fold change vs veh, CAPN2 / RFU, MED14 / Fold change vs veh, MED14 / RFU, SNORA58 / Fold change vs veh, SNORA58 / RFU, C1orf63 / Fold change vs veh, C1orf63 / RFU, LRRFIP1 / Fold change vs veh, LRRFIP1 / RFU, NDUFAF7 / Fold change vs veh, NDUFAF7 / RFU, SLC12A2 / Fold change vs veh, SLC12A2 / RFU, IBTK / Fold change vs veh, IBTK / RFU, ESF1 / Fold change vs veh, ESF1 / Fold change vs veh, TMEM50B / RFU, TAOK1 / Fold change vs veh, TAOK1 / RFU, ACBD3 / Fold change vs veh, ACBD3 / RFU, TMA16 / Fold change vs veh, TMA16 / RFU, RWDD3 / Fold change vs veh, RWDD3 / RFU, BCAT1 / Fold change vs veh, BCAT1 / RFU, EDEM3 / Fold change vs veh, EDEM3 / RFU, TMEM33 / Fold change vs veh, TMEM33 / RFU, WDR75 / Fold change vs veh, WDR75 / RFU, AHCTF1 / Fold change vs veh, AHCTF1 / RFU, TFRC / Fold change vs veh, TFRC / RFU, ZDHHC17 / Fold change vs veh, ZDHHC17 / RFU, NOM1 / Fold change vs veh, NOM1 / RFU, ARL8B / Fold change vs veh, ARL8B / RFU, ZBTB11 / Fold change vs veh, ZBTB11 / RFU, TAMM41 / Fold change vs veh, TAMM41 / RFU, KIAA1704 /// LOC100996395 / Fold change vs veh, KIAA1704 /// LOC100996395 / RFU, ING1 / Fold change vs veh, ING1 / RFU, TRMT61B / Fold change vs veh, TRMT61B / RFU, FUBP3 / Fold change vs veh, FUBP3 / RFU, TP53 / Fold change vs veh, TP53 / RFU, TNKS2 / Fold change vs veh, TNKS2 / RFU, ZFP14 / Fold change vs veh, ZFP14 / RFU, ACTR2 / Fold change vs veh, ACTR2 / RFU, PPP3R1 / Fold change vs veh, PPP3R1 / RFU, PIK3R1 / Fold change vs veh, PIK3R1 / RFU, HNRNPA1 / Fold change vs veh, HNRNPA1 / RFU, RNF170 / Fold change vs veh, RNF170 / RFU, ZNF28 / Fold change vs veh, ZNF28 / RFU, RNGTT / Fold change vs veh, RNGTT / RFU, OGT / Fold change vs veh, OGT / RFU, BRD1 / Fold change vs veh, BRD1 / RFU, MARS / Fold change vs veh, MARS / RFU, ZNF655 / Fold change vs veh, ZNF655 / RFU, FAHD1 / Fold change vs veh, FAHD1 / RFU, BDP1 / Fold change vs veh, BDP1 / RFU, LRRCC1 / Fold change vs veh, LRRCC1 / RFU, ARID1A / Fold change vs veh, ARID1A / RFU, ZNF146 / Fold change vs veh, ZNF146 / RFU, ZNF330 / Fold change vs veh, ZNF330 / RFU, GPN3 / Fold change vs veh, GPN3 / RFU, C9orf123 / Fold change vs veh, C9orf123 / RFU, N4BP2L2 / Fold change vs veh, N4BP2L2 / RFU, ARFIP1 / Fold change vs veh, ARFIP1 / RFU, FAM179B / Fold change vs veh, FAM179B / RFU, BCL10 / Fold change vs veh, BCL10 / RFU, UHRF1BP1L / Fold change vs veh, UHRF1BP1L / RFU, BET1 / Fold change vs veh, BET1 / RFU, CNOT2 / Fold change vs veh, CNOT2 / RFU, ZNF268 / Fold change vs veh, ZNF268 / Fold change vs veh, ZNF507 / RFU, DGCR2 / Fold change vs veh, DGCR2 / RFU, WDSUB1 / Fold change vs veh, WDSUB1 / Fold change vs veh, HSP90B1 /// MIR3652 / RFU, ADSS / Fold change vs veh, ADSS / RFU, GK / Fold change vs veh, GK / RFU, ZNF148 / Fold change vs veh, ZNF148 / RFU, TAF9 / Fold change vs veh, TAF9 / RFU, SLC1A5 / Fold change vs veh, SLC1A5 / RFU, SLMO2 / Fold change vs veh, SLMO2 / RFU, ABCC4 / Fold change vs veh, ABCC4 / RFU, LOC101060439 /// RAP1B / Fold change vs veh, LOC101060439 /// RAP1B / RFU, RFX7 / Fold change vs veh, RFX7 / RFU, GTPBP10 / Fold change vs veh, GTPBP10 / RFU, CNEP1R1 / Fold change vs veh, CNEP1R1 / RFU, BIVM-ERCC5 /// ERCC5 / Fold change vs veh, BIVM-ERCC5 /// ERCC5 / RFU, ILF3 / Fold change vs veh, ILF3 / RFU 11762660_at / Fold change /veh 11762660_at / RFU VCAN (11757783_s_at) / Fold change /veh VCAN (11757783_s_at) / RFU DDX43 (11728927_at) / Fold change /veh DDX43 (11728927_at) / RFU KRT8 (11758188_x_at) / Fold change /veh KRT8 (11758188_x_at) / RFU NKD1 (11759106_at) / Fold change /veh NKD1 (11759106_at) / RFU SRD5A1 (11742802_a_at) / Fold change /veh SRD5A1 (11742802_a_at) / RFU TPSAB1 /// TPSB2 (11721975_s_at) / Fold change /veh TPSAB1 /// TPSB2 (11721975_s_at) / RFU GSTM3 (11746129_a_at) / Fold change /veh GSTM3 (11746129_a_at) / RFU IL23R (11737362_x_at) / Fold change /veh IL23R (11737362_x_at) / RFU TMEM51 (11727254_a_at) / Fold change /veh TMEM51 (11727254_a_at) / RFU PIWIL2 (11732686_x_at) / Fold change /veh PIWIL2 (11732686_x_at) / RFU ORM1 (11744905_x_at) / Fold change /veh ORM1 (11744905_x_at) / RFU CCDC152 (11743942_at) / Fold change /veh CCDC152 (11743942_at) / RFU ECM1 (11717891_a_at) / Fold change /veh ECM1 (11717891_a_at) / RFU IL23R (11748794_a_at) / Fold change /veh IL23R (11748794_a_at) / RFU TNFAIP8L3 (11732012_x_at) / Fold change /veh TNFAIP8L3 (11732012_x_at) / RFU MBOAT4 (11741988_at) / Fold change /veh MBOAT4 (11741988_at) / RFU 11764193_at / Fold change /veh 11764193_at / RFU TMEM53 (11763286_at) / Fold change /veh TMEM53 (11763286_at) / RFU MAGEB2 (11727129_at) / Fold change /veh MAGEB2 (11727129_at) / RFU TMEM200A (11744735_a_at) / Fold change /veh TMEM200A (11744735_a_at) / RFU CCDC152 (11751479_a_at) / Fold change /veh CCDC152 (11751479_a_at) / RFU FAM211A (11726209_a_at) / Fold change /veh FAM211A (11726209_a_at) / RFU RGS16 (11746705_a_at) / Fold change /veh RGS16 (11746705_a_at) / RFU VCAN (11755009_s_at) / Fold change /veh VCAN (11755009_s_at) / RFU RHOB (11743442_s_at) / Fold change /veh RHOB (11743442_s_at) / RFU RGS16 (11720943_a_at) / Fold change /veh RGS16 (11720943_a_at) / RFU RGS16 (11720944_at) / Fold change /veh RGS16 (11720944_at) / RFU, VPS4B / Fold change vs veh, VPS4B / RFU, CREB1 / Fold change vs veh, CREB1 / RFU, DNAJC13 / Fold change vs veh, DNAJC13 / RFU, GNAQ / Fold change vs veh, GNAQ / RFU, CDK5R1 / Fold change vs veh, CDK5R1 / RFU, ZRANB3 / Fold change vs veh, ZRANB3 / RFU, CUL4A / Fold change vs veh, CUL4A / RFU, CCNY / Fold change vs veh, CCNY / RFU, UFL1 / Fold change vs veh, UFL1 / RFU, COG3 / Fold change vs veh, COG3 / RFU, DIAPH2 / Fold change vs veh, DIAPH2 / RFU, SKA2 / Fold change vs veh, SKA2 / RFU, AFF3 / Fold change vs veh, AFF3 / RFU, LMF1 / Fold change vs veh, LMF1 / RFU, IPO11 / Fold change vs veh, IPO11 / RFU, DFFB / Fold change vs veh, DFFB / RFU, FOXP1 / Fold change vs veh, FOXP1 / RFU, CARD8 / Fold change vs veh, CARD8 / RFU, STRN3 / Fold change vs veh, STRN3 / RFU, ADK / Fold change vs veh, ADK / RFU, RASSF2 / Fold change vs veh, RASSF2 / RFU, WIPF1 / Fold change vs veh, WIPF1 / RFU, LARP1B / Fold change vs veh, LARP1B / RFU, RASA1 / Fold change vs veh, RASA1 / RFU, RB1 / Fold change vs veh, RB1 / RFU, PPFIA1 / Fold change vs veh, PPFIA1 / RFU, MAT2A / Fold change vs veh, MAT2A / RFU, CCT5 / Fold change vs veh, CCT5 / RFU, WDR92 / Fold change vs veh, WDR92 / RFU, CUX1 / Fold change vs veh, CUX1 / RFU, TTC7A / Fold change vs veh, TTC7A / RFU, TMEM135 / Fold change vs veh, TMEM135 / RFU, DEPTOR / Fold change vs veh, DEPTOR / RFU, CPM / Fold change vs veh, CPM / RFU, DNAJB6 / Fold change vs veh, DNAJB6 / RFU, CACNA2D3 / Fold change vs veh, CACNA2D3 / RFU, DTX4 / Fold change vs veh, DTX4 / RFU, TFCP2 / Fold change vs veh, TFCP2 / RFU, GMCL1 /// GMCL1P1 / Fold change vs veh, GMCL1 /// GMCL1P1 / RFU, AEBP2 / Fold change vs veh, AEBP2 / RFU, SNHG1 /// SNORD22 /// SNORD25 /// SNORD26 /// SNORD27 /// SNORD28 /// SNORD29 /// SNORD31 / Fold change vs veh, SNHG1 /// SNORD22 /// SNORD25 /// SNORD26 /// SNORD27 /// SNORD28 /// SNORD29 /// SNORD31 / Fold change (Aza/veh), C12orf56 (ProbeSet 11735607_a_at) / Fold change (ACY-1035/veh), C12orf56 (ProbeSet 11735607_a_at) / Fold change (Aza/veh), FGFR1OP (ProbeSet 11751329_s_at) / Fold change (ACY-1035/veh), FGFR1OP (ProbeSet 11751329_s_at) / Fold change (Aza/veh), VPS36 (ProbeSet 11739960_a_at) / Fold change (ACY-1035/veh), VPS36 (ProbeSet 11739960_a_at) / RFU SYPL1 (11715823_x_at) / Fold change /veh SYPL1 (11715823_x_at) / RFU IGFBP7 (11715501_s_at) / Fold change /veh IGFBP7 (11715501_s_at) / RFU REEP3 (11722064_at) / Fold change /veh REEP3 (11722064_at) / RFU IGLL1 (11728026_x_at) / Fold change /veh IGLL1 (11728026_x_at): dose or concentration left out as unconfirmed
# Conditions: ProbeSet 11758440_s_at; LIST B
smiles,measurement,value
Nc1ccc(-c2cccs2)cc1NC(=O)c1ccc2c(c1)cc(C1CC1)n2CCN1CCOCC1 [ACY-1035],"Fold change vs veh, RFX7",0.90
